This series is described as follows: Glutathione exchange experiment (stability towards competing sulfhydryl groups, RP-HPLC). It is filed as physicochemical. The note with it: 0.1 M sodium phosphate buffer pH 7, 10 equiv of glutathione, 37° C., 96 hours. The procedure: This example provides a stability experiment of the compound of the invention towards competing sulfhydryl groups.
Compound 4aa was incubated in a 0.1 M sodium phosphate buffer at pH 7 with 10 equiv of glutathione, incubated at 37° C. and shaken for 96 hours. The stability was checked using RP-HPLC [Phenomenex Luna C18 column using a flow rate of 1 mL/min; H2O method: 3 minutes column flushing with 100% H2O, then a gradient from 0 to 100% ACN in 20 minutes, followed by 5 minutes of flushing with 100% ACN]. […] Representative HPLC chromatogram is shown (FIG. 7).

Take “1-benzyl-5-hydroxy-4-((2-hydroxyethyl)thio)-5-methylpyrrolidin-2-one [Compound 4aa]”: the GSH exchange reaction result is “no GSH exchange reaction takes place”.

In the case of `CC1(O)C(SCCO)CC(=O)N1Cc1ccccc1` (centres unmarked) [4′aa, 1-benzyl-5-hydroxy-4-((2-hydroxyethyl)thio)-5-methylpyrrolidin-2-one], the “stability of conjugated compound in presence of glutathione” value was “stable”.

Values taken from patent US12479799B2, “Bioconjugation reagent and methods” (Universiteit Gent, priority 2019, dated 2025).
